Holding throughout (test): relative viability (nuclei count vs DMSO), 5 days (fraction); higher = more cells survive
Compound in the experiment “XMD13-2 + Navitoclax”: C1CC1C(=O)NC2=NNC3=C2C=CC(=C3)C4=CC(=CC=C4)C(=O)NC5CC5 [XMD13-2] + CC1(C)CCC(c2ccc(Cl)cc2)=C(CN2CCN(c3ccc(C(=O)NS(=O)(=O)c4ccc(N[C@H](CCN5CCOCC5)CSc5ccccc5)c(S(=O)(=O)C(F)(F)F)c4)cc3)CC2)C1 [Navitoclax] (partner 0.5 µM)
A digest of the protocol:
(§1)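 One day after seeding in 1536-well plates, lung cancer cell lines were dosed by pin tool. Dosing was either single-drug or a fixed anchor-drug dose plus five library-drug doses (not always all listed) in √10 steps. After 5 days, nuclei were stained in one fix-and-stain step and counted on 4× images, and relative viability is the nuclei count of treated wells over that of vehicle wells, given as the median of duplicate plates.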

Compound in the experiment “XMD13-2 + Luminespib”: C1CC1C(=O)NC2=NNC3=C2C=CC(=C3)C4=CC(=CC=C4)C(=O)NC5CC5 [XMD13-2] + CCNC(=O)c1noc(-c2cc(C(C)C)c(O)cc2O)c1-c1ccc(CN2CCOCC2)cc1 [Luminespib] (partner 0.01 µM)
A digest of the protocol:
as §1

Compound in the experiment “ALW-II-49-7 + Pictilisib”: Cc1ccc(C(=O)Nc2cccc(C(F)(F)F)c2)cc1Nc1cncc(C(N)=O)c1 [ALW-II-49-7] + CS(=O)(=O)N1CCN(Cc2cc3nc(-c4cccc5[nH]ncc45)nc(N4CCOCC4)c3s2)CC1 [Pictilisib] (partner 1 µM)
A digest of the protocol:
as §1

Compound in the experiment “XMD13-2 + Dasatinib”: C1CC1C(=O)NC2=NNC3=C2C=CC(=C3)C4=CC(=CC=C4)C(=O)NC5CC5 [XMD13-2] + Cc1nc(Nc2ncc(C(=O)Nc3c(C)cccc3Cl)s2)cc(N2CCN(CCO)CC2)n1 [Dasatinib] (partner 0.075 µM)
In outline: as §1

With UMC-11, the relative viability in the experiment with XMD13-2 + Navitoclax (first compound 0.05 µM) is 0.347; in the experiment with XMD13-2 + Navitoclax (first compound 0.1581 µM), 0.284; in the experiment with XMD13-2 + Navitoclax (first compound 0.5 µM), 0.309; with XMD13-2 + Navitoclax (first compound 1.581 µM) it was 0.344; in the experiment with XMD13-2 + Navitoclax (first compound 5 µM) it was 0.265; with XMD13-2 + Luminespib (first compound 0.05 µM), 1.11. For the same cell line, the relative viability in the experiment with XMD13-2 + Luminespib (first compound 0.1581 µM) was determined as 1.02; with XMD13-2 + Luminespib (first compound 0.5 µM) it was 0.992; with XMD13-2 + Luminespib (first compound 1.581 µM) it was 0.961; with XMD13-2 + Luminespib (first compound 5 µM), 0.974; in the experiment with ALW-II-49-7 + Pictilisib (first compound 0.08 µM), 0.917; in the experiment with ALW-II-49-7 + Pictilisib (first compound 0.253 µM), 0.807. For the same cell line, the relative viability was 1.06 with ALW-II-49-7 + Pictilisib (first compound 2.53 µM); 0.814 with ALW-II-49-7 + Pictilisib (first compound 8 µM); 0.55 in the experiment with XMD13-2 + Dasatinib (first compound 0.05 µM); 0.428 with XMD13-2 + Dasatinib (first compound 0.1581 µM); 0.477 with XMD13-2 + Dasatinib (first compound 0.5 µM); 0.505 in the experiment with XMD13-2 + Dasatinib (first compound 1.581 µM). Moreover, in the experiment with XMD13-2 + Dasatinib (first compound 5 µM), the relative viability amounted to 0.453.
